ChEMBL document CHEMBL4270553, “Synthesis and anticancer activity of new dihydropyrimidinone derivatives” (Eur J Med Chem, 2018)

Tests used:
PC-3 [1] = assay: cells; details: Homo sapiens, PC-3, 24 h
Description: Cytotoxicity against human PC3 cells after 24 hrs by MTT assay

HCT-116 [2] = assay: cells; details: Homo sapiens, HCT-116, 24 h
Description: Cytotoxicity against human HCT116 cells after 24 hrs by MTT assay

MCF7 [3] = assay: Cytotoxicity against human MCF7 cells after 24 hrs by MTT assay; format: functional, cell-based; details: MCF7, 24 h
T47D = assay: Antiproliferative activity against human T47D cells assessed as growth inhibition at 10 uM after 48 hrs by sulforhodamine B assay relative to control; format: functional; details: read-out: GI
HCT-15 = assay: Antiproliferative activity against human HCT15 cells assessed as growth inhibition at 10 uM after 48 hrs by sulforhodamine B assay relative to control; format: functional; details: HCT-15, 48 h, read-out: GI
MOLT-4 = assay: Antiproliferative activity against human MOLT4 cells assessed as growth inhibition at 10 uM after 48 hrs by sulforhodamine B assay relative to control; format: functional; details: MOLT-4, 48 h, read-out: GI
HL-60(TB) = assay: Antiproliferative activity against human HL-60(TB) cells assessed as growth inhibition at 10 uM after 48 hrs by sulforhodamine B assay relative to control; format: functional; details: HL-60, 48 h, read-out: GI
MDA-MB-468 = assay: Antiproliferative activity against human MDA-MB-468 cells assessed as growth inhibition at 10 uM after 48 hrs by sulforhodamine B assay relative to control; format: functional; details: MDA-MB-468, 48 h, read-out: GI
MCF7 [4] = assay: Antiproliferative activity against human MCF7 cells assessed as growth inhibition at 10 uM after 48 hrs by sulforhodamine B assay relative to control; format: functional; details: MCF7, 48 h, read-out: GI
CAKI-1 = assay: Antiproliferative activity against human Caki1 cells assessed as growth inhibition at 10 uM after 48 hrs by sulforhodamine B assay relative to control; format: functional; details: CAKI-1, 48 h, read-out: GI
UACC-62 = assay: Antiproliferative activity against human UACC62 cells assessed as growth inhibition at 10 uM after 48 hrs by sulforhodamine B assay relative to control; format: functional; details: UACC-62, 48 h, read-out: GI
NCI-H322M = assay: Antiproliferative activity against human NCI-H322M cells assessed as growth inhibition at 10 uM after 48 hrs by sulforhodamine B assay relative to control; format: functional; details: read-out: GI
PC-3 [5] = assay: Antiproliferative activity against human PC3 cells assessed as growth inhibition at 10 uM after 48 hrs by sulforhodamine B assay relative to control; format: functional; details: PC-3, 48 h, read-out: GI
SK-MEL-5 = assay: Antiproliferative activity against human SK-MEL-5 cells assessed as growth inhibition at 10 uM after 48 hrs by sulforhodamine B assay relative to control; format: functional; details: SK-MEL-5, 48 h, read-out: GI
NCI-H460 = assay: Antiproliferative activity against human NCI-H460 cells assessed as growth inhibition at 10 uM after 48 hrs by sulforhodamine B assay relative to control; format: functional; details: NCI-H460, 48 h, read-out: GI
A549 = assay: Antiproliferative activity against human A549/ATCC cells assessed as growth inhibition at 10 uM after 48 hrs by sulforhodamine B assay relative to control; format: functional; details: A549, 48 h, read-out: GI
NCI/ADR-RES = assay: Antiproliferative activity against human NCI/ADR-RES cells assessed as growth inhibition at 10 uM after 48 hrs by sulforhodamine B assay relative to control; format: functional; details: read-out: GI
ACHN = assay: Antiproliferative activity against human ACHN cells assessed as growth inhibition at 10 uM after 48 hrs by sulforhodamine B assay relative to control; format: functional; details: read-out: GI
LOX IMVI = assay: Antiproliferative activity against human LOXIMVI cells assessed as growth inhibition at 10 uM after 48 hrs by sulforhodamine B assay relative to control; format: functional; details: read-out: GI
NCI-H522 = assay: Antiproliferative activity against human NCI-H522 cells assessed as growth inhibition at 10 uM after 48 hrs by sulforhodamine B assay relative to control; format: functional; details: NCI-H522, 48 h, read-out: GI
HCT-116 [6] = assay: Antiproliferative activity against human HCT116 cells assessed as growth inhibition at 10 uM after 48 hrs by sulforhodamine B assay relative to control; format: functional; details: HCT-116, 48 h, read-out: GI
SR = assay: Antiproliferative activity against human SR cells assessed as growth inhibition at 10 uM after 48 hrs by sulforhodamine B assay relative to control; format: functional; details: read-out: GI
K562 = assay: Antiproliferative activity against human K562 cells assessed as growth inhibition at 10 uM after 48 hrs by sulforhodamine B assay relative to control; format: functional; details: K562, 48 h, read-out: GI
UO-31 = assay: Antiproliferative activity against human UO31 cells assessed as growth inhibition at 10 uM after 48 hrs by sulforhodamine B assay relative to control; format: functional; details: UO-31, 48 h, read-out: GI
SF-295 = assay: Antiproliferative activity against human SF295 cells assessed as growth inhibition at 10 uM after 48 hrs by sulforhodamine B assay relative to control; format: functional; details: SF-295, 48 h, read-out: GI
OVCAR-4 = assay: Antiproliferative activity against human OVCAR4 cells assessed as growth inhibition at 10 uM after 48 hrs by sulforhodamine B assay relative to control; format: functional; details: OVCAR-4, 48 h, read-out: GI
HeLa = assay: Cytotoxicity against human HeLa cells; format: functional, cell-based
BJ = assay: Cytotoxicity against human BJ cells; format: cell-based
MRC5 = assay: Cytotoxicity against human MRC5 cells; format: cell-based
[7] = Cytotoxicity against human WPE1-NA22 cells; format: cell-based
[8] = target: Serine/threonine-protein kinase mTOR (Homo sapiens, UniProt P42345); assay: Inhibition of mTOR (unknown origin) incubated for 1 hr by ELISA relative to control; details: concentration not given here

| Structure (SMILES) | inhibition of growth at 10 µM (T47D) | inhibition of growth at 10 µM (HCT-15) | inhibition of growth at 10 µM (MOLT-4) | inhibition of growth at 10 µM (HL-60(TB)) | inhibition of growth at 10 µM (MDA-MB-468) | inhibition of growth at 10 µM (MCF7 [4]) | inhibition of growth at 10 µM (CAKI-1) | inhibition of growth at 10 µM (UACC-62) | inhibition of growth at 10 µM (NCI-H322M) | inhibition of growth at 10 µM (PC-3 [5]) | inhibition of growth at 10 µM (SK-MEL-5) | inhibition of growth at 10 µM (NCI-H460) | inhibition of growth at 10 µM (A549) | inhibition of growth at 10 µM (NCI/ADR-RES) | inhibition of growth at 10 µM (ACHN) | inhibition of growth at 10 µM (LOX IMVI) | inhibition of growth at 10 µM (NCI-H522) | inhibition of growth at 10 µM (HCT-116 [6]) | inhibition of growth at 10 µM (SR) | inhibition of growth at 10 µM (K562) | further results |
| --- | --- | --- | --- | --- | --- | --- | --- | --- | --- | --- | --- | --- | --- | --- | --- | --- | --- | --- | --- | --- | --- |
| CCOC(=O)C1=C(CSc2nnc(-c3ccc(C)cc3)o2)N(C)C(=O)NC1c1ccccc1 (configuration not stated) |  |  |  |  |  |  |  |  |  |  |  |  |  |  |  |  |  |  |  |  | IC50 (PC-3 [1]): 61.8 µM; IC50 (HCT-116 [2]): 36 µM; IC50 (MCF7 [3]): 25.3 µM |
| CCOC(=O)C1=C(CSC(=S)N2CCN(c3ccc(OC)cc3)CC2)N(C)C(=O)NC1c1ccccc1 (configuration not stated) | 59% | 60% | 49% | 32% | 21% | 30% | 26% | 42% | 17% | 53% | 51% | 39% | 33% | 13% | 21% | 33% | 37% | 57% | 63% | 47% | inhibition of growth at 10 µM (UO-31): 55%; inhibition of growth at 10 µM (SF-295): 15%; inhibition of growth at 10 µM (OVCAR-4): 29% |
| CCOC(=O)C1=C(CSC(=S)N2CCCCC2)N(C)C(=O)NC1c1ccccc1 (configuration not stated) | 45% | 35% | 30% | 33% | 20% | 12% | 17% | 28% | 15% | 27% | 25% | 10% | 29% | 12% | 15% | 11% | 25% | 34% | 27% | 20% | inhibition of growth at 10 µM (UO-31): 29%; inhibition of growth at 10 µM (SF-295): 13%; inhibition of growth at 10 µM (OVCAR-4): 16% |
| CNC(=O)c1cc(Oc2ccc(NC(=O)Nc3ccc(Cl)c(C(F)(F)F)c3)cc2)ccn1 [SORAFENIB] |  |  |  |  |  |  |  |  |  |  |  |  |  |  |  |  |  |  |  |  | IC50 (HeLa): 0.64 µM |
| CCOC(=O)C1=C(CSC(=S)N2CCN(c3ccccc3)CC2)N(C)C(=O)NC1c1ccccc1 (configuration not stated) | 37% | 48% | 24% | 20% | 14% | 15% | 15% | 24% | 15% | 41% | 23% | 12% | 27% | 5% | 11% | 13% | 28% | 41% | 44% | 22% | inhibition of growth at 10 µM (UO-31): 37%; inhibition of growth at 10 µM (SF-295): 17%; inhibition of growth at 10 µM (OVCAR-4): 15% |
| COc1cccc2c1C(=O)c1c(O)c3c(c(O)c1C2=O)C[C@@](O)(C(=O)CO)C[C@@H]3O[C@H]1C[C@H](N)[C@H](O)[C@H](C)O1 [DOXORUBICIN] |  |  |  |  |  |  |  |  |  |  |  |  |  |  |  |  |  |  |  |  | IC50 (BJ): 17.6 µM; IC50 (MRC5): 14.8 µM; IC50 [7]: 18.2 µM |
| CO[C@H]1C[C@@H]2CC[C@@H](C)[C@@](O)(O2)C(=O)C(=O)N2CCCC[C@H]2C(=O)O[C@H]([C@H](C)C[C@@H]2CC[C@@H](O)[C@H](OC)C2)CC(=O)[C@H](C)/C=C(\C)[C@@H](O)[C@@H](OC)C(=O)[C@H](C)C[C@H](C)/C=C/C=C/C=C/1C [SIROLIMUS] |  |  |  |  |  |  |  |  |  |  |  |  |  |  |  |  |  |  |  |  | IC50 (HeLa): 0.77 µM; inhibition [8]: 94.9% |
| CCOC(=O)C1=C(CN(C2CCCCC2)C2CCCCC2)N(C)C(=O)NC1c1ccccc1 (configuration not stated) | 46% | 11% | 35% | 37% | 21% | 36% | 30% | 23% | 5% | 58% | 19% | 13% | 33% | 7% | 13% | 13% | 18% | 33% | 20% | 31% | inhibition of growth at 10 µM (UO-31): 27%; inhibition of growth at 10 µM (SF-295): 19%; inhibition of growth at 10 µM (OVCAR-4): 26% |
| CCOC(=O)C1=C(CSc2nc3cc(C)ccc3[nH]2)N(C)C(=O)NC1c1ccccc1 (configuration not stated) |  |  |  |  |  |  |  |  |  |  |  |  |  |  |  |  |  |  |  |  | IC50 (PC-3 [1]): 22.3 µM; IC50 (HCT-116 [2]): 9.5 µM; IC50 (MCF7 [3]): 19.4 µM |
| CCOC(=O)C1=C(CSC(=S)N2CCN(c3ccccc3OCC)CC2)N(C)C(=O)NC1c1ccccc1 (configuration not stated) |  |  |  |  |  |  |  |  |  |  |  |  |  |  |  |  |  |  |  |  | IC50 (PC-3 [1]): 72.3 µM; IC50 (HCT-116 [2]): 67.6 µM; IC50 (MCF7 [3]): 53.8 µM |
